According to patent EP0437367A2, “Compositions and methods for inhibiting osteoclast cellular adhesion to bone” (MERCK & CO. INC., priority 1990, dated 1991):
Bridge positions count the residues as written; N and C are the ends.

Key:
Type in all cases: cell-based
[1] = tested on: chicken osteoclasts; assay: resorption by chicken osteoclasts, release of 3H proline from labelled bone particles
Procedure: Osteoclasts from the long bones of egg laying hens were isolated by the methods of Zambonin Zallone et al. (1989) and Blair et al., J. Cell Biol. 102: 1164-1172 (1986). Medullary bone was harvested with scalpels from split femora and tibiae of laying hens (Dekalb XL) that were on a Ca deficient diet (5070C- 9, Purina Mills Inc., St. Louis) for 3-6 wks. After washing in PBS 4°C, the suspension was pressed through a 110 um nylon mesh and then osmotically shocked in 0.2% NaCl for 3 min 37°C to lyse red blood cells. The cells were collected at 350xg (5 min, 4°C), and osteoclasts were sedimented through 70% serum for 90 min at 4°C in 50 ml tubes (Fisher). The bottom 5 ml was then layered over a 3 step (1.073, 1.099, 1.143 g/cm³) Nycodenz gradient (Accurate, Ct) and spun at 350xg, 20 min, 4°C. […] Cells excluding trypan blue (Gibco) were immediately counted on a hemocytometer (Fisher) and aliquoted at 1-2x 10⁶ total cells (not counting red blood cells)/ well of 48 well plates (Costar), no. […]
Therefore, for 1 day resorption experiments, unlabelled bone particles (50 ug, <20 um fraction) were first added to chicken cells at day 3 followed by labelled bone (100 ug, 20- 53 um) plus test compounds (Merck) at day 5. Alternatively, labelled bone (100 ug) plus compounds were added at day 3 and the media counted at day 6 with a LKB liquid scintillation counter. […]

[2] = tested on: chicken osteoclasts; assay: attachment assay of 3H proline labelled bone particles to chicken osteoclasts; details: chicken osteoclasts after 5-6 days culture
Procedure: Attachment of ³H proline labelled bone particles (20- 53 um) was followed with time by assaying free and bound pools. Chicken osteoclasts in 48 well plates were given 100 ug of labelled bone particles. Free was defined as particles liberated by 3x swirling of cultures with media. Bound was defined as particles liberated after 6 hr incubation and 2x swirling in 1N NaOH. All cells were completely disrupted by the latter treatment. Samples were then ashed in a Packard 306 oxidizer (Camberra Inst., NJ) and counted (LKB).
Free end bound particles of bone labelled with [³H] proline were assayed as a function of incubation time with chicken osteoclasts after 5-6 days culture at 37°C. […] At this echistatin concentration, resorption was inhibited by 40% with little effect on osteoclast morphology.

[3] = target: T1, rat osteoclasts (Rattus norvegicus, UniProt F1LZX9+Q8R2H2); assay: bone slice resorption assay with rat osteoclasts; details: range 1pM- 10 uM, P>0.07, Graph 3a
T1 sequence (F1LZX9 31-1043): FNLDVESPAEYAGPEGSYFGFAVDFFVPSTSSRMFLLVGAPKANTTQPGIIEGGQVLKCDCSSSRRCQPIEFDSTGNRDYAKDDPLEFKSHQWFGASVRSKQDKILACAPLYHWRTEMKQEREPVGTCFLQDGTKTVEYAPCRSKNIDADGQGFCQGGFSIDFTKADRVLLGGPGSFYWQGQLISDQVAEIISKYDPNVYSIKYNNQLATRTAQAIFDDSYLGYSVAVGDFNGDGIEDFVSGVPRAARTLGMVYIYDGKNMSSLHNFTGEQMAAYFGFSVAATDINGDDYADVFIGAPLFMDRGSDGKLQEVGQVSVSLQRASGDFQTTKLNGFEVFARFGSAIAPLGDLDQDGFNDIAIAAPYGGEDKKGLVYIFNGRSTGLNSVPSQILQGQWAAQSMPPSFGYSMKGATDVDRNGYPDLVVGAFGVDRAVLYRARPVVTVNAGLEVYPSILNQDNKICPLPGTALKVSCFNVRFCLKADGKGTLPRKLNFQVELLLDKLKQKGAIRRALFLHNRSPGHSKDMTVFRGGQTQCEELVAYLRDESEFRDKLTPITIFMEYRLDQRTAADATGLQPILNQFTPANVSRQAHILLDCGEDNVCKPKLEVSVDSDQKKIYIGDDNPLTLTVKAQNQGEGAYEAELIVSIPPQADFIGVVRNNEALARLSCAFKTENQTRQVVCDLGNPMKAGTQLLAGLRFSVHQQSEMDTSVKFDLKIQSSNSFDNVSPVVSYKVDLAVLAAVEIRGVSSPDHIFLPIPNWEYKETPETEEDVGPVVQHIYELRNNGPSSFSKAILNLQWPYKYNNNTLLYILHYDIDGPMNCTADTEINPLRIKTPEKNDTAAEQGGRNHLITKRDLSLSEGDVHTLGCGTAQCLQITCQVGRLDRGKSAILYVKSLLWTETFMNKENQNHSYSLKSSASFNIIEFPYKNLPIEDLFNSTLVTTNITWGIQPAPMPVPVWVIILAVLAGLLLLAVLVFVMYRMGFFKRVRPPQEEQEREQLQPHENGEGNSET
T1 sequence (Q8R2H2 26-787): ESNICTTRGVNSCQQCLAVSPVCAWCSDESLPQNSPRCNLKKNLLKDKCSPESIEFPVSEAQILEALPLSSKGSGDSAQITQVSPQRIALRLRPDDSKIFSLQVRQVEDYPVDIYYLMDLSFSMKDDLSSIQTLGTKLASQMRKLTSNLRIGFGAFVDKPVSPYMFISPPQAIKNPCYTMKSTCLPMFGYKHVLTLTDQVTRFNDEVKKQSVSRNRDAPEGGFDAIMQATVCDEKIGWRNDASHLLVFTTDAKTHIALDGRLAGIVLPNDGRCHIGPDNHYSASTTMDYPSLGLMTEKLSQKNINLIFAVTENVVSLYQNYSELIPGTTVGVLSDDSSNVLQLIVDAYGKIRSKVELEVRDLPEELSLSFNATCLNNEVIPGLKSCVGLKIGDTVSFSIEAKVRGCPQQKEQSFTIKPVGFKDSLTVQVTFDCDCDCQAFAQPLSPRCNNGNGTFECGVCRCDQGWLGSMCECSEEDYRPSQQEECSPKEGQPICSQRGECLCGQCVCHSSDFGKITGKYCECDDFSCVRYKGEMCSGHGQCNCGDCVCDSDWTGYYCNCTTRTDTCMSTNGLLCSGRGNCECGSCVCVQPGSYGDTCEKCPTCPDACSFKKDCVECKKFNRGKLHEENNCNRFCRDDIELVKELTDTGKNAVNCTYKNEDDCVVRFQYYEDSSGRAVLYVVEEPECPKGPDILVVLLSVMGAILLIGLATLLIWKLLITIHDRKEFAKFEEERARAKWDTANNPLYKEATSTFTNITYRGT
Procedure: Osteoclasts, large multinucleated cells up to 400 microns in diameter and with abundant acidophilic cytoplasm which function in the absorption and removal of osseous tissue, use the integrin receptor to bind bone as part of the mechanism of bone resorption. […] Based on the release of [³H] proline from labelled bone particles, the IC₅₀ of chicken osteoclast resorption was 100 nM. By comparison, the RGDS synthetic tetrapeptide inhibited rat or chicken resorption with an IC₅₀ of 0.1 mM. Attachment experiments with chicken osteoclasts and bone particles labelled with [³H] proline confirmed that the mechanism of action of echistatin is to inhibit osteoclast binding to bone. Echistatin induces the retraction of osteoclast lamellipodia in a manner reminiscent of 1 nM calcitonin or 1 uM prostaglandin E₂.
Osteoclasts were isolated from the long bones of 1-3 day old rats as described by Chambers et al., J. Cell Sci. 66: 383-399 (1984). […]
Resorption of rat and some chicken osteoclasts was measured by using bone slices (4.4 x 4.4 x 0.2 mm) from the diaphysis of bovine femur (Isomet, Buehler Ltd., Lake Bluff, IL) which were cut with a low speed diamond saw as described by Arnett and Dempster, 1986. […] Resorption pits were quantitated by reflected light microscopy with crossed polarizers and rotatable lambda/4 plate (Sato and Grasser, J. Bone Min. Res. in press).

[4] = target: T1, rat osteoclasts; assay: retraction of lamellipodia of rat osteoclasts
Text: Osteoclasts were isolated from the long bones of 1-3 day old rats as described by Chambers et al., J. Cell Sci. 66: 383-399 (1984). Femora, tibiae and humera were dissected clean of soft tissue, split and scrapped with scalpels into 199 media pH 7-7.2 + 10% heat inactivated fetal calf serum + 100 U/ml antibiotics (penicillin G, steptomycin, amphotericin B, Gibco, New York). After gentle pipetting 60x with a wide bore pipette, the cell suspension was passed through a 110 um nylon mesh (Spectra) and aliquoted onto plastic dishes (Costar, Cambridge, MA), No. 1 coverslips (Corning, New York), glass cuvettes (Herminus) or bone slices (Arnett and Dempster, Endocrinology 120: 602-608 (1987)). All experiments with rat osteoclast cultures were conducted within the first 24 hr after isolation.
Rat or chicken osteoclasts were incubated with different concentrations of RGDS, echistatin and Ala²⁴ echistatin. All of these peptides induced morphological changes but rat osteoclasts 1 day after isolation on glass retracted lamellipodia at 10⁵x lower concentrations of echistatin (4.3 nM) compared to RGDS peptide. […] At these concentrations, extension/retraction and ruffling motility of the lamellipodia increased. […]

## CCCCC[C@H](O)/C=C/[C@H]1[C@H](O)CC(=O)[C@@H]1C/C=C\CCCC(=O)O [prostaglandin E₂]
[1]; Gallus gallus, Osteoclast, 24 h, Graph 2a, 1 day resorption assay, read-out: IC₅₀ of resorption
  IC50: 1 µM

## H-ECESGPCCRNCKFLKEGTICKRARGDDMDDYCNGKTCDCPRNPHKGPAT-OH (disulfide 2-11, 7-32, 8-37, 20-39 (inferred)) [Synthetic Echistatin]
[2]; 100 nM, up to 150 min
  attachment of bone particles to osteoclasts: significantly inhibited

## Ala²⁴ echistatin
[1]; range 1pM- 10 uM, P>0.07, Graph 3a
  effects on the resorption activity: insignificant effects
[3]
  effects on the resorption activity: insignificant effects
[2]; 10 nM
  kinetics of bone attachment to osteoclasts: no significant effect
[4]; rat osteoclasts 1 day after isolation on glass
  concentration at which lamellipodia retracted: 34 nM
[4]; rat osteoclasts, followed for up to 2 hr
  concentration at which lamellipodia did not retract: 3.4 nM
